Experiments:
L1210 = assay: Antiproliferative activity against mouse L1210 cells after 72 hrs by phosphatase assay; assay type: functional, cell-based; settings: L1210, 72 h
HCT-116 = assay: Antiproliferative activity against human HCT116 cells after 72 hrs by phosphatase assay; assay type: functional, cell-based; settings: HCT-116, 72 h
[1] = Cytotoxicity against human HCT116/VM46 cells assessed as reduction in cell viability after 72 hrs by phosphatase assay; assay type: cell-based; settings: HCT-116/VM46, 72 h

| Structure (SMILES) | IC50 (L1210) | IC50 (HCT-116) | IC50 [1] |
| --- | --- | --- | --- |
| CC[C@]1(NC(=O)c2cccc(SC)c2)C[C@H]2CN(CCc3c([nH]c4ccccc34)[C@@](C(=O)OC)(c3cc4c(cc3OC)N(C)[C@H]3[C@@](O)(C(=O)OC)[C@H](OC(C)=O)[C@]5(CC)C=CCN6CC[C@]43[C@@H]65)C2)C1 | 5.4 nM | 2.3 nM | 20 nM |
| CC[C@]1(NC(=O)c2cc(C)c(OC)c(C)c2)C[C@H]2CN(CCc3c([nH]c4ccccc34)[C@@](C(=O)OC)(c3cc4c(cc3OC)N(C)[C@H]3[C@@](O)(C(=O)OC)[C@H](OC(C)=O)[C@]5(CC)C=CCN6CC[C@]43[C@@H]65)C2)C1 | 0.5 nM | 0.65 nM | 3.5 nM |
| CC[C@]1(NS(=O)(=O)c2ccccc2)C[C@H]2CN(CCc3c([nH]c4ccccc34)[C@@](C(=O)OC)(c3cc4c(cc3OC)N(C)[C@H]3[C@@](O)(C(=O)OC)[C@H](OC(C)=O)[C@]5(CC)C=CCN6CC[C@]43[C@@H]65)C2)C1 | 45 nM | 50 nM | 680 nM |
| CC[C@]1(NS(=O)(=O)c2ccccc2[N+](=O)[O-])C[C@H]2CN(CCc3c([nH]c4ccccc34)[C@@](C(=O)OC)(c3cc4c(cc3OC)N(C)[C@H]3[C@@](O)(C(=O)OC)[C@H](OC(C)=O)[C@]5(CC)C=CCN6CC[C@]43[C@@H]65)C2)C1 | 360 nM | 420 nM | 440 nM |
| CC[C@]1(NC(=O)c2cccc(OC)c2)C[C@H]2CN(CCc3c([nH]c4ccccc34)[C@@](C(=O)OC)(c3cc4c(cc3OC)N(C)[C@H]3[C@@](O)(C(=O)OC)[C@H](OC(C)=O)[C@]5(CC)C=CCN6CC[C@]43[C@@H]65)C2)C1 | 0.6 nM | 0.8 nM | 8.7 nM |
| CC[C@]1(NC(=O)c2ccc3cc4ccccc4cc3c2)C[C@H]2CN(CCc3c([nH]c4ccccc34)[C@@](C(=O)OC)(c3cc4c(cc3OC)N(C)[C@H]3[C@@](O)(C(=O)OC)[C@H](OC(C)=O)[C@]5(CC)C=CCN6CC[C@]43[C@@H]65)C2)C1 | 40 nM | 60 nM | 150 nM |
| CC[C@]1(NC(=O)c2ccc(Oc3ccccc3)cc2)C[C@H]2CN(CCc3c([nH]c4ccccc34)[C@@](C(=O)OC)(c3cc4c(cc3OC)N(C)[C@H]3[C@@](O)(C(=O)OC)[C@H](OC(C)=O)[C@]5(CC)C=CCN6CC[C@]43[C@@H]65)C2)C1 | 5.2 nM | 6.5 nM | 50 nM |
| CC[C@]1(NC(=O)c2ccc3c(c2)OCCN3C)C[C@H]2CN(CCc3c([nH]c4ccccc34)[C@@](C(=O)OC)(c3cc4c(cc3OC)N(C)[C@H]3[C@@](O)(C(=O)OC)[C@H](OC(C)=O)[C@]5(CC)C=CCN6CC[C@]43[C@@H]65)C2)C1 | 0.3 nM | 0.3 nM | 4.9 nM |
| CC[C@]1(NC(=O)c2cc3ccccc3s2)C[C@H]2CN(CCc3c([nH]c4ccccc34)[C@@](C(=O)OC)(c3cc4c(cc3OC)N(C)[C@H]3[C@@](O)(C(=O)OC)[C@H](OC(C)=O)[C@]5(CC)C=CCN6CC[C@]43[C@@H]65)C2)C1 | 3.1 nM | 1.9 nM | 9.2 nM |
| CC[C@]1(NC(=O)/C=C/c2cccnc2)C[C@H]2CN(CCc3c([nH]c4ccccc34)[C@@](C(=O)OC)(c3cc4c(cc3OC)N(C)[C@H]3[C@@](O)(C(=O)OC)[C@H](OC(C)=O)[C@]5(CC)C=CCN6CC[C@]43[C@@H]65)C2)C1 | 5.9 nM | 5.7 nM | 320 nM |
| CC[C@]1(NC(=O)c2ccc3c(c2)CCC3)C[C@H]2CN(CCc3c([nH]c4ccccc34)[C@@](C(=O)OC)(c3cc4c(cc3OC)N(C)[C@H]3[C@@](O)(C(=O)OC)[C@H](OC(C)=O)[C@]5(CC)C=CCN6CC[C@]43[C@@H]65)C2)C1 | 5 nM | 5.6 nM | 11 nM |
| CC[C@]1(NC(=O)c2ccccc2Cl)C[C@H]2CN(CCc3c([nH]c4ccccc34)[C@@](C(=O)OC)(c3cc4c(cc3OC)N(C)[C@H]3[C@@](O)(C(=O)OC)[C@H](OC(C)=O)[C@]5(CC)C=CCN6CC[C@]43[C@@H]65)C2)C1 | 50 nM | 55 nM | 390 nM |
| CC[C@]1(NC(=O)c2ccc3c(c2)CCO3)C[C@H]2CN(CCc3c([nH]c4ccccc34)[C@@](C(=O)OC)(c3cc4c(cc3OC)N(C)[C@H]3[C@@](O)(C(=O)OC)[C@H](OC(C)=O)[C@]5(CC)C=CCN6CC[C@]43[C@@H]65)C2)C1 | 0.3 nM | 0.25 nM | 2.4 nM |
| CC[C@]1(NC(=O)C(c2ccccc2)c2ccccc2)C[C@H]2CN(CCc3c([nH]c4ccccc34)[C@@](C(=O)OC)(c3cc4c(cc3OC)N(C)[C@H]3[C@@](O)(C(=O)OC)[C@H](OC(C)=O)[C@]5(CC)C=CCN6CC[C@]43[C@@H]65)C2)C1 | 760 nM | 3800 nM | 5100 nM |
| CC[C@]1(NC(=O)c2cccc(Br)c2)C[C@H]2CN(CCc3c([nH]c4ccccc34)[C@@](C(=O)OC)(c3cc4c(cc3OC)N(C)[C@H]3[C@@](O)(C(=O)OC)[C@H](OC(C)=O)[C@]5(CC)C=CCN6CC[C@]43[C@@H]65)C2)C1 | 5 nM | 6.3 nM | 60 nM |
| CC[C@]1(NC(=O)c2cc3ccccc3o2)C[C@H]2CN(CCc3c([nH]c4ccccc34)[C@@](C(=O)OC)(c3cc4c(cc3OC)N(C)[C@H]3[C@@](O)(C(=O)OC)[C@H](OC(C)=O)[C@]5(CC)C=CCN6CC[C@]43[C@@H]65)C2)C1 | 1.8 nM | 1.1 nM | 15 nM |
| CC[C@]1(NC(=O)c2cccs2)C[C@H]2CN(CCc3c([nH]c4ccccc34)[C@@](C(=O)OC)(c3cc4c(cc3OC)N(C)[C@H]3[C@@](O)(C(=O)OC)[C@H](OC(C)=O)[C@]5(CC)C=CCN6CC[C@]43[C@@H]65)C2)C1 | 0.6 nM | 0.6 nM | 6.7 nM |
| CCOc1ccc(C(=O)N[C@@]2(CC)C[C@H]3CN(CCc4c([nH]c5ccccc45)[C@@](C(=O)OC)(c4cc5c(cc4OC)N(C)[C@H]4[C@@](O)(C(=O)OC)[C@H](OC(C)=O)[C@]6(CC)C=CCN7CC[C@]54[C@@H]76)C3)C2)cc1 | 0.6 nM | 0.6 nM | 2.8 nM |
| CC[C@]1(NC(=O)C(C)C)C[C@H]2CN(CCc3c([nH]c4ccccc34)[C@@](C(=O)OC)(c3cc4c(cc3OC)N(C)[C@H]3[C@@](O)(C(=O)OC)[C@H](OC(C)=O)[C@]5(CC)C=CCN6CC[C@]43[C@@H]65)C2)C1 | 70 nM | 90 nM | 1400 nM |
| CC[C@]1(NC(=O)c2ccc(C3CCCCC3)cc2)C[C@H]2CN(CCc3c([nH]c4ccccc34)[C@@](C(=O)OC)(c3cc4c(cc3OC)N(C)[C@H]3[C@@](O)(C(=O)OC)[C@H](OC(C)=O)[C@]5(CC)C=CCN6CC[C@]43[C@@H]65)C2)C1 | 40 nM | 30 nM | 60 nM |
| CC[C@]1(NC(=O)c2ccc(C(C)C)cc2)C[C@H]2CN(CCc3c([nH]c4ccccc34)[C@@](C(=O)OC)(c3cc4c(cc3OC)N(C)[C@H]3[C@@](O)(C(=O)OC)[C@H](OC(C)=O)[C@]5(CC)C=CCN6CC[C@]43[C@@H]65)C2)C1 | 5.4 nM | 6.4 nM | 13 nM |
| CC[C@]1(NC(=O)c2cccnc2)C[C@H]2CN(CCc3c([nH]c4ccccc34)[C@@](C(=O)OC)(c3cc4c(cc3OC)N(C)[C@H]3[C@@](O)(C(=O)OC)[C@H](OC(C)=O)[C@]5(CC)C=CCN6CC[C@]43[C@@H]65)C2)C1 | 0.7 nM | 0.6 nM | 50 nM |
| CC[C@]1(NC(=O)c2ccccc2OC(F)(F)F)C[C@H]2CN(CCc3c([nH]c4ccccc34)[C@@](C(=O)OC)(c3cc4c(cc3OC)N(C)[C@H]3[C@@](O)(C(=O)OC)[C@H](OC(C)=O)[C@]5(CC)C=CCN6CC[C@]43[C@@H]65)C2)C1 | 450 nM | 480 nM | 620 nM |
| CC[C@]1(NC(=O)c2nc3ccccc3o2)C[C@H]2CN(CCc3c([nH]c4ccccc34)[C@@](C(=O)OC)(c3cc4c(cc3OC)N(C)[C@H]3[C@@](O)(C(=O)OC)[C@H](OC(C)=O)[C@]5(CC)C=CCN6CC[C@]43[C@@H]65)C2)C1 | 60 nM | 60 nM | 190 nM |
| CC[C@]1(NC(=O)c2ccc(F)cc2)C[C@H]2CN(CCc3c([nH]c4ccccc34)[C@@](C(=O)OC)(c3cc4c(cc3OC)N(C)[C@H]3[C@@](O)(C(=O)OC)[C@H](OC(C)=O)[C@]5(CC)C=CCN6CC[C@]43[C@@H]65)C2)C1 | 1.8 nM | 1.4 nM | 25 nM |
| CC[C@]1(NC(=O)c2csc3ccccc23)C[C@H]2CN(CCc3c([nH]c4ccccc34)[C@@](C(=O)OC)(c3cc4c(cc3OC)N(C)[C@H]3[C@@](O)(C(=O)OC)[C@H](OC(C)=O)[C@]5(CC)C=CCN6CC[C@]43[C@@H]65)C2)C1 | 5.2 nM | 5.7 nM | 20 nM |
| CC[C@]1(NC(=O)c2ccc(OC(C)C)cc2)C[C@H]2CN(CCc3c([nH]c4ccccc34)[C@@](C(=O)OC)(c3cc4c(cc3OC)N(C)[C@H]3[C@@](O)(C(=O)OC)[C@H](OC(C)=O)[C@]5(CC)C=CCN6CC[C@]43[C@@H]65)C2)C1 | 0.7 nM | 0.8 nM | 6.6 nM |
| CC[C@]1(NC(=O)C2CC2)C[C@H]2CN(CCc3c([nH]c4ccccc34)[C@@](C(=O)OC)(c3cc4c(cc3OC)N(C)[C@H]3[C@@](O)(C(=O)OC)[C@H](OC(C)=O)[C@]5(CC)C=CCN6CC[C@]43[C@@H]65)C2)C1 | 5.5 nM | 6.1 nM | 95 nM |
| CC[C@]1(NC(=O)c2cncs2)C[C@H]2CN(CCc3c([nH]c4ccccc34)[C@@](C(=O)OC)(c3cc4c(cc3OC)N(C)[C@H]3[C@@](O)(C(=O)OC)[C@H](OC(C)=O)[C@]5(CC)C=CCN6CC[C@]43[C@@H]65)C2)C1 | 1.8 nM | 0.6 nM | 45 nM |
| CC[C@]1(NC(=O)c2cccc(Cl)c2)C[C@H]2CN(CCc3c([nH]c4ccccc34)[C@@](C(=O)OC)(c3cc4c(cc3OC)N(C)[C@H]3[C@@](O)(C(=O)OC)[C@H](OC(C)=O)[C@]5(CC)C=CCN6CC[C@]43[C@@H]65)C2)C1 | 4.2 nM | 2.7 nM | 20 nM |

From ChEMBL document CHEMBL4017512 (J Med Chem, 2017)
